{"source": "patent US20220387544A1", "about": "“NOVEL THERAPEUTIC USE” (Artios Pharma Limited, priority 2019, published 2022)", "format_in_all_cases": "cell-based", "key": {"[1]": {"tested_on": "Shieldin-defective, PARPi-resistant SUM149 cells", "assay": "Re-sensitisation to olaparib", "procedure": "For measurement of re-sensitisation to Olaparib, exponentially growing cells were exposed to Compound A for 48 hours. After, cells were seeded in 96-well plates at a concentration of 1000-2000 cells per well. 24 hours post-seeding, Olaparib treatment was initiated and cells were continuously exposed to the drug with media and drug replenished every 72 hours. After 10 days, cell viability was estimated using Cell-Titre Glo (Promega). SFs were calculated and drug sensitivity curves plotted as previously described (Farmer et al Nature (2005) 434, 917-921).\nBriefly, parental SUM149 cells or derivatives with either BRCA1 restored or with genetic deletion of either C20orf196 or 53BP1 were treated with Compound A in a tissue culture flask for 48 hours. The cells were then washed before seeding at low density in 96 well plates. 24 hours post seeding, cells were incubated with either olaparib or DMSO for a further 10 days. The relative survival normalised to untreated cells was measured using Cell-Titre Glo."}, "[2]": {"tested_on": "parental and C20orf196 KO SUM149 tumouroids", "assay": "Tumouroid assay, parental vs C20orf196 KO SUM149", "conditions": "in C20orf196 KO cells when compared with olaparib", "procedure": "Cells were seeded into a hydrogel containing 10% rat tail collagen (OcellO) in 384-well high content imaging microplates at varying densities to compensate for differential growth characteristics (Table 2).\n24 hours after seeding, test compounds and olaparib (Selleckchem) were added in an eight-point dose range with a one in three serial dilution (maximum concentration 12 μM for all compounds, except 30 μM compound A for REV7 KO cell experiments). Dimethyl sulfoxide (DMSO) and 1 μM staurosporine (Med Chem Express) treatments were included as negative and positive controls, respectively. All treatments were carried out in quadruplicate.\nAfter seven or fourteen days of treatment for 20orf196 KO and REV7 KO experiments respectively, cells were fixed with 5× Fix & Stain solution (OcellO) for 16 hours at 4° C. to stain both the nuclei using Hoechst 33258 and the actin cytoskeleton using Rhodamine-Phalloidin. Cells were washed four times with phosphate-buffered saline (PBS), and plates were imaged and analysed using OcellO's three-dimensional image analysis software (Ominer). For each well, two channels of 16-bit image stacks were collected using an automated microscope system: Molecular Devices ImageXpress Micro XLS, equipped with a 4× magnification/0.2NA PlanApo objective. For each image slice (n=47), pixel size was 0.324 μm and step size in z-direction was 50 μm.\nParental or C20orf196 KO SUM149 cells were seeded into a collagen-containing hydrogel in 384-well plates and incubated overnight. The resulting tumouroids were treated with a serial dilution of Polθ inhibitor or olaparib for seven days, fixed, and stained to visualise DNA and F-actin. Plates were imaged, and tumouroid size was measured using OcellO's three-dimensional image analysis software.\nParental or C20orf196 KO SUM149 cells were seeded into a collagen-containing hydrogel in 384-well plates and incubated overnight. The resulting tumouroids were treated with a serial dilution of Polθ inhibitor or olaparib for seven days, fixed, and stained to visualise DNA and F-actin. Plates were imaged, and the number of nuclei per tumouroid was counted using OcellO's three-dimensional image analysis software.\nParental or C20orf196 KO SUM149 cells were seeded into a collagen-containing hydrogel in 384-well plates and incubated overnight. The resulting tumouroids were treated with Polθ inhibitor, olaparib or control compound (at the concentrations indicated) for seven days, fixed, and stained to visualise DNA and F-actin. Plates were imaged, and the fraction of nuclei without an associated actin cytoskeleton was calculated using OcellO's three-dimensional image analysis software."}, "[3]": {"tested_on": "parental and REV7 KO 22Rv1 cells", "assay": "Colony formation assay, 22Rv1", "conditions": "REV7 KO vs REV7 wild type parental 22Rv1 cells, 2 weeks", "procedure": "1 mL of cells were seeded per well in a 24-well plate in triplicate and incubated overnight at 37° C. Cells were treated with a seven-point dose response curve with a one-in-three serial dilution of compound for the timepoints listed in Table 5. For MDA-MB-436 cells media was replenished every five days.\nCells were fixed with 70% ethanol for 20 minutes at room temperature with shaking. Cells were then stained with 0.04% Crystal Violet (Sigma Aldrich) for 20 minutes at room temperature with shaking. Cells were washed 6 times with water and air-dried overnight.\nPlates were imaged using a Gelcount (Oxford Optronix), and colonies were counted using parameters optimized for each cell line. 22Rv1 viability curves were generated from the colony counts alone. MDA-MB-436 and […] viability curves were generated from solubilized colonies. Colonies were solubilized using 10% acetic acid (VWR) for 30 minutes, absorbance at 595 nm was read using the Clariostar plate reader (BMG Labtech), and blank correction was applied. Relative Survival was calculated by normalization of compound treated wells to DMSO treated wells.\nThe effect of a DNA polymerase theta (Polθ) inhibitor (Compound A) or the PARP inhibitor olaparib on the survival of parental (REV7 wild type) or REV7 deleted (REV7 KO) 22Rv1 cells was investigated in colony formation assays (CFA—see protocol above). […]"}}, "data": [{"compound": "Cc1cccc(N(C)C(=O)[C@@H]2[C@H](O)CCN2c2nc(C)cc(C(F)(F)F)c2C#N)c1", "note": "[Compound A, (2S,3R)-1-(3-cyano-6-methyl-4-(trifluoromethyl)pyridin-2-yl)-3-hydroxy-N-methyl-N-(m-tolyl)pyrrolidine-2-carboxamide]", "values": [{"measurement": "sensitivity to olaparib after pre-treatment", "setting": "[1]; Compound A 10 μM 48 hours then olaparib 1 μM 10 days, SUM149 C20orf196 and SUM149 53BP1 cells", "value": "induced sensitivity"}, {"measurement": "effect on survival of 48 hours treatment alone", "setting": "[1]; Compound A 10 μM for 48 hours then DMSO, SUM149 cells and derivatives", "value": "no effect on survival"}, {"measurement": "cell death", "setting": "[2]", "value": "significantly more cell death"}, {"measurement": "reduction in the number of nuclei per tumoroid", "setting": "[2]", "value": "greater reduction in the number of nuclei per tumoroid"}, {"measurement": "reduction in tumoroid size", "setting": "[2]", "value": "greater reduction in tumoroid size"}, {"measurement": "sensitivity by relative survival (colonies)", "setting": "[3]", "value": "significantly more sensitive"}]}]}
